{"source": "patent US9963462B2", "about": "(priority 2015, dated 2018)"}
{"target": "SNAP-hSPR (sepiapterin reductase, SPR) (Homo sapiens, UniProt P35270)", "sequence (P35270 whole entry)": "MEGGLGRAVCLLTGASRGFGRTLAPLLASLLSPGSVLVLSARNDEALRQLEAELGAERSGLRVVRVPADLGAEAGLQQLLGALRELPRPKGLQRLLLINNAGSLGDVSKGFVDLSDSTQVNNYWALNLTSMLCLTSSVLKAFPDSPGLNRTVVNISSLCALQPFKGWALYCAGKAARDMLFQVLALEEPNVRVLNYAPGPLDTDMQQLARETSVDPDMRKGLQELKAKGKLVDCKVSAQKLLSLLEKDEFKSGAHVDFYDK", "assay": "biochemical", "format": "binding", "conditions": "terbium labelled SNAP-hSPR / SSZ labelled SNAP-EGFP; read-out: hTR-FRET IC50", "units": {"IC50": "nM"}}
{"smiles": "Cc1cc(=O)[nH]c(-c2cnn(CCC(=O)N3CCc4ccccc4C3)c2)n1", "note": "(single isomer, unassigned) [Q-0291, 6-methyl-2-{1-[3-oxo-3-(1,2,3,4-tetrahydroisoquinolin-2-yl)propyl]-1H-pyrazol-4-yl}-3,4-dihydropyrimidin-4-one]", "IC50": 2700}
{"smiles": "Cc1cc(-c2cnn(CCC(=O)N3CCc4ccccc4C3)c2)[nH]c(=O)n1", "note": "(single isomer, unassigned) [Q-0292, 4-methyl-6-{1-[3-oxo-3-(1,2,3,4-tetrahydroisoquinolin-2-yl)propyl]-1H-pyrazol-4-yl}-1,2-dihydropyrimidin-2-one]", "IC50": 40000}
{"smiles": "Cc1nc(-n2ncc(C(=O)N3c4ccccc4C[C@@H]3C)c2C)[nH]c(=O)c1C", "note": "(single isomer, unassigned) [Q-0457]", "IC50": 100}
{"smiles": "Cc1cc(=O)[nH]c(-n2nc(C)c(CCC(=O)N3CCCCC3C)c2C)n1", "note": "(stereo not shown) [Q-0002]", "IC50": 30}
{"smiles": "COc1ccccc1NC(=O)c1cnn(-c2nc(C)cc(=O)[nH]2)c1C", "note": "[Q-0004]", "IC50": 70}
{"smiles": "Cc1cc(=O)[nH]c(-n2ncc(C(=O)NCCc3ccc(F)cc3)c2C)n1", "note": "[Q-0007]", "IC50": 100}
{"smiles": "Cc1cc(=O)[nH]c(-c2cnn(CCC(=O)N3CCCC3)c2)n1", "note": "[Q-0283, 6-methyl-2-{1-[3-oxo-3-(pyrrolidin-1-yl)propyl]-1H-pyrazol-4-yl}-3,4-dihydropyrimidin-4-one]", "IC50": 1500}
{"smiles": "Cc1cc(=O)[nH]c(-c2c(C)nn(CCC(=O)N3CCc4ccccc4C3)c2C)n1", "note": "[Q-0284]", "IC50": 2900}
{"smiles": "Cc1cc(-c2c(C)nn(CCC(=O)N3CCc4ccccc4C3)c2C)[nH]c(=O)n1", "note": "[Q-0285, 4-{3,5-dimethyl-1-[3-oxo-3-(1,2,3,4-tetrahydroisoquinolin-2-yl)propyl]-1H-pyrazol-4-yl}-6-methyl-1,2-dihydropyrimidin-2-one]", "IC50": 40000}
{"smiles": "Cc1cc(=O)[nH]c(-n2ncc(C(=O)N3CCc4ccc(C#N)cc4C3)c2C)n1", "note": "[Q-0286]", "IC50": 10}
{"smiles": "Cc1cc(=O)[nH]c(-n2ncc(C(=O)O)c2C)n1", "note": "[Q-0290]", "IC50": 2000}
{"smiles": "Cc1cc(=O)[nH]c(-n2nc(C)c(CC(=O)N3CCCC3)c2C)n1", "note": "[Q-0301]", "IC50": 200}
{"smiles": "Cc1cc(=O)[nH]c(-c2c(C)nn(CCC(=O)N3CCCC3)c2C)n1", "note": "[Q-0306]", "IC50": 25000}
{"smiles": "CNC(=O)c1cnn(-c2nc(C)cc(=O)[nH]2)c1C", "note": "[Q-0316]", "IC50": 300}
{"smiles": "Cc1c(C(=O)N2CCOCC2)cnn1-c1nc2ccccc2c(=O)[nH]1", "note": "[Q-0320]", "IC50": 1300}
{"smiles": "Cc1c(C(=O)NC2CCCC2)cnn1-c1nc2ccccc2c(=O)[nH]1", "note": "[Q-0321]", "IC50": 900}
{"smiles": "Cc1cc(=O)[nH]c(-n2ncc(C(=O)N3CCC4(CCN(C)C4)C3)c2C)n1", "note": "(stereo not shown) [Q-0322]", "IC50": 200}
{"smiles": "Cc1c(C(=O)N2CCc3ccccc3C2)cnn1-c1nc2cc(Cl)sc2c(=O)[nH]1", "note": "[Q-0394]", "IC50": 1500}
{"smiles": "Cc1cc2nc(-n3ncc(C(=O)N4CCc5ccccc5C4)c3C)[nH]c(=O)c2s1", "note": "[Q-0407]", "IC50": 1700}
{"smiles": "Cc1cc2c(=O)[nH]c(-n3ncc(C(=O)N4CCC(C(F)(F)F)CC4)c3C)nc2s1", "note": "[Q-0413]", "IC50": 2200}
{"smiles": "CCC1Cc2ccccc2N1C(=O)c1cnn(-c2nc(C)cc(=O)[nH]2)c1C", "note": "(stereo not shown) [Q-0420]", "IC50": 7}
{"smiles": "Cc1nc(-n2ncc(C(=O)N3CCC(C(F)(F)F)CC3)c2C)cc(=O)[nH]1", "note": "[Q-0436]", "IC50": 4600}
{"smiles": "Cc1nc(-n2ccc(C(=O)N3CCC(C(F)(F)F)CC3)n2)cc(=O)[nH]1", "note": "[Q-0437, 2-methyl-6-{3-[4-(trifluoromethyl)piperidine-1-carbonyl]-1H-pyrazol-1-yl}-3,4-dihydropyrimidin-4-one]", "IC50": 5000}
{"smiles": "Cc1c(C(=O)N2CCC(C(F)(F)F)CC2)cnn1-c1nc2ccnn2c(=O)[nH]1", "note": "[Q-0447]", "IC50": 400}
{"smiles": "Cc1c(C(=O)N2CCC(C(F)(F)F)CC2)cnn1-c1nc2nc[nH]c2c(=O)[nH]1", "note": "[Q-0448]", "IC50": 1500}
{"smiles": "O=C(c1cnn(-c2cc3nccn3c(=O)[nH]2)c1)N1CCC(C(F)(F)F)CC1", "note": "[Q-0452]", "IC50": 800}
{"smiles": "Cc1cc(-n2ncc(C(=O)N3CCC(C(F)(F)F)CC3)c2C)[nH]c(=O)n1", "note": "[Q-0454]", "IC50": 300}
{"smiles": "Cc1cc(=O)n(C)c(-n2ncc(C(=O)N3CCc4ccccc4C3)c2C)n1", "note": "[Q-0455]", "IC50": 16000}
{"smiles": "Cc1c(C(N2CCC(C(F)(F)F)CC2)C(F)(F)F)cnn1-c1nc2c(c(=O)[nH]1)CCC2", "note": "(stereo not shown) [Q-0503, 2-(5-methyl-4-{2,2,2-trifluoro-1-[4-(trifluoromethyl)piperidin-1-yl]ethyl}-1H-pyrazol-1-yl)-3H,4H,5H,6H,7H-cyclopenta[d]pyrimidin-4-one]", "IC50": 4000}
{"smiles": "O=c1[nH]c(-c2cc(Br)ccn2)nc2ccsc12", "note": "[Q-0540]", "IC50": 300}
{"smiles": "Cc1c(C(=O)O)cnn1-c1nc2ccsc2c(=O)[nH]1", "note": "[Q-0541]", "IC50": 200}
{"smiles": "Cc1c(C(=O)O)cnn1-c1nc2sccc2c(=O)[nH]1", "note": "[Q-0542]", "IC50": 100}
{"smiles": "O=C(O)c1cnn(-c2nc3c(c(=O)[nH]2)CCC3)c1C1CC1", "note": "[Q-0544]", "IC50": 30}
{"smiles": "Cc1c(C(=O)N2CCC(c3nc(C(N)=O)cs3)CC2)cnn1-c1nn2cccc2c(=O)[nH]1", "note": "[Q-1090]", "IC50": 1}
{"smiles": "Cc1c(C(=O)N2CCN(c3nnc(-c4cccnc4)o3)CC2)cnn1-c1nn2cccc2c(=O)[nH]1", "note": "[Q-1150]", "IC50": 1}
{"smiles": "Cc1c(C(=O)N2CCNCC2)cnn1-c1nn2cccc2c(=O)[nH]1", "note": "[Q-1251]", "IC50": 50}
{"smiles": "Cc1c(C(=O)N2CCN(CC(F)(F)F)CC2)cnn1-c1nc2c(ccn2C)c(=O)[nH]1", "note": "[Q-1266]", "IC50": 200}
{"smiles": "CCn1ccc2c(=O)[nH]c(-n3ncc(C(=O)N4CCN(CC(F)(F)F)CC4)c3C)nc21", "note": "[Q-1292]", "IC50": 5000}
{"smiles": "Cc1c(C(=O)N2CC3(C2)CC(F)(F)C3)cnn1-c1nc2[nH]ncc2c(=O)[nH]1", "note": "[Q-1295]", "IC50": 2400}
{"smiles": "Cc1c(C(=O)N2CCN(CC(F)(F)F)CC2)cnn1-c1nc2[nH]ncc2c(=O)[nH]1", "note": "[Q-1296]", "IC50": 600}
{"smiles": "Cc1c(C(=O)N2CC3(C2)CC(F)(F)C3)cnn1-c1nc2c(ccn2C)c(=O)[nH]1", "note": "[Q-1306]", "IC50": 500}
{"smiles": "CCn1ccc2c(=O)[nH]c(-n3ncc(C(=O)N4CC(N5CCC(F)(F)C5)C4)c3C)nc21", "note": "[Q-1311]", "IC50": 5000}
{"smiles": "CCn1ccc2c(=O)[nH]c(-n3ncc(C(=O)N4CC5(C4)CC(F)(F)C5)c3C)nc21", "note": "[Q-1313]", "IC50": 5000}
{"smiles": "Cc1c(C(=O)N2CCC2c2ccnc(F)c2)cnn1-c1nn2cccc2c(=O)[nH]1", "note": "(stereo not shown) [Q-1320]", "IC50": 20}
{"smiles": "Cc1c(C(=O)N2CC(N3CCC(F)(F)C3)C2)cnn1-c1nc2c(ccn2C)c(=O)[nH]1", "note": "[Q-1322]", "IC50": 400}
{"smiles": "CCn1ccc2c(=O)[nH]c(-n3ncc(C(=O)N4CC5CC(C4)N5CC(F)(F)F)c3C)nc21", "note": "[Q-1341]", "IC50": 5000}
{"smiles": "Cc1c(C(=O)N2CC(N3CCC(F)(F)C3)C2)cnn1-c1nc2c(c(=O)[nH]1)COC2", "note": "[Q-1343]", "IC50": 70}
{"smiles": "Cc1c(C(=O)N2CC(N3CCC(F)(F)C3)C2)cnn1-c1nc2[nH]ncc2c(=O)[nH]1", "note": "[Q-1345]", "IC50": 1400}
{"smiles": "Cc1c(C(=O)N2CC3(C2)CC(F)(F)C3)cnn1-c1nc2c(c(=O)[nH]1)COC2", "note": "[Q-1346]", "IC50": 50}
{"smiles": "Cc1c(C(=O)N2CC3CC(C2)N3CC(F)(F)F)cnn1-c1nc2c(ccn2C)c(=O)[nH]1", "note": "[Q-1365]", "IC50": 1000}
{"smiles": "Cc1c(C(=O)N2CC3CC(C2)N3CC(F)(F)F)cnn1-c1nc2c(c(=O)[nH]1)COC2", "note": "[Q-1483]", "IC50": 30}
{"smiles": "Cc1c(C(=O)N2CC3CC(C2)N3CC(F)(F)F)cnn1-c1nc2[nH]ncc2c(=O)[nH]1", "note": "[Q-1560]", "IC50": 800}
{"smiles": "Cc1c(C(=O)N2CCN(CC(F)(F)F)CC2)cnn1-c1nc2c(c(=O)[nH]1)CC(C)(C)C2", "note": "[Q-1563]", "IC50": 5000}
{"smiles": "Cc1c(C(=O)N2CC(N3CCC(F)(F)C3)C2)cnn1-c1nc2c(c(=O)[nH]1)CC(C)(C)C2", "note": "[Q-1564, 2-(4-(3-(3,3-difluoropyrrolidin-1-yl)azetidine-1-carbonyl)-5-methyl-1H-pyrazol-1-yl)-6,6-dimethyl-6,7-dihydro-3H-cyclopenta[d]pyrimidin-4(5H)-one]", "IC50": 5000}
{"smiles": "Cc1c(C(=O)N2CC3(C2)CC(F)(F)C3)cnn1-c1nc2c(c(=O)[nH]1)CC(C)(C)C2", "note": "[Q-1565]", "IC50": 5000}
{"smiles": "Cc1c(C(=O)O)cnn1-c1nc2c(c(=O)[nH]1)CC(C)(C)C2", "note": "[Q-1597]", "IC50": 5000}
{"smiles": "COC(=O)c1cnn(-c2nc3c(c(=O)[nH]2)CC(C)(C)C3)c1C", "note": "[Q-1641]", "IC50": 5000}
{"smiles": "Cc1c(C(=O)N2CCN(S(=O)(=O)c3ccc(OC(F)(F)F)cc3)CC2)cnn1-c1nn2cccc2c(=O)[nH]1", "note": "[Q-1798, 2-(5-methyl-4-(4-(4-(trifluoromethoxy)phenylsulfonyl)piperazine-1-carbonyl)-1H-pyrazol-1-yl)pyrrolo[1,2-f][1,2,4]triazin-4(3H)-one]", "IC50": 2}
{"smiles": "Cc1c(C(=O)N2CCN(S(=O)(=O)c3ccc(C(C)(C)C)cc3)CC2)cnn1-c1nn2cccc2c(=O)[nH]1", "note": "[Q-1800]", "IC50": 2}
{"smiles": "Cc1c(C(=O)N2CCN(S(=O)(=O)c3ccc(F)c(Cl)c3)CC2)cnn1-c1nn2cccc2c(=O)[nH]1", "note": "[Q-1801]", "IC50": 2}
{"smiles": "COc1ccc(S(=O)(=O)N2CCN(C(=O)c3cnn(-c4nn5cccc5c(=O)[nH]4)c3C)CC2)cc1", "note": "[Q-1804]", "IC50": 2}
{"smiles": "Cc1c(C(=O)N2CCN(S(=O)(=O)c3cc(Cl)c(Cl)s3)CC2)cnn1-c1nn2cccc2c(=O)[nH]1", "note": "[Q-1814]", "IC50": 2}
{"smiles": "Cc1c(C(=O)N2CCN(S(=O)(=O)c3cccc4c(N(C)C)cccc34)CC2)cnn1-c1nn2cccc2c(=O)[nH]1", "note": "[Q-1815]", "IC50": 2}
{"smiles": "Cc1c(C(=O)N2CCN(S(=O)(=O)c3cc(Cl)ccc3Cl)CC2)cnn1-c1nn2cccc2c(=O)[nH]1", "note": "[Q-1825]", "IC50": 2}
{"smiles": "Cc1c(C(=O)N2CCN(S(=O)(=O)c3cccc(C(F)(F)F)c3)CC2)cnn1-c1nn2cccc2c(=O)[nH]1", "note": "[Q-1826]", "IC50": 2}
{"smiles": "CC(=O)Nc1nc(C)c(S(=O)(=O)N2CCN(C(=O)c3cnn(-c4nn5cccc5c(=O)[nH]4)c3C)CC2)s1", "note": "[Q-1827]", "IC50": 1}
{"smiles": "Cc1c(C(=O)N2CCN(S(=O)(=O)c3ccc4c(c3)OCO4)CC2)cnn1-c1nn2cccc2c(=O)[nH]1", "note": "[Q-1829]", "IC50": 2}
{"smiles": "Cc1c(C(=O)N2CCN(S(=O)(=O)c3ccc(Cl)c(Cl)c3)CC2)cnn1-c1nn2cccc2c(=O)[nH]1", "note": "[Q-1830]", "IC50": 2}
{"smiles": "Cc1c(C(=O)N2CCN(S(=O)(=O)c3ccc4ccccc4c3)CC2)cnn1-c1nn2cccc2c(=O)[nH]1", "note": "[Q-1831]", "IC50": 3}
{"smiles": "Cc1c(C(=O)N2CCN(S(=O)(=O)c3cnn(C)c3)CC2)cnn1-c1nn2cccc2c(=O)[nH]1", "note": "[Q-1832]", "IC50": 3}
